Measurements taken from the supplement of paper PMC10307832.

Tests used:
Assay in all cases: relative viability (nuclei count vs DMSO), 5 days (fraction); higher = more cells survive
[1] = tested on: HOP-62
Summary of the method: (§1)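 Each reported value is a median over duplicate plates. It expresses relative viability: treated-well nuclei count divided by vehicle-well nuclei count. Lung cancer cell lines in 1536-well plates were dosed by pin tool a day after seeding, alone with one drug or with a fixed anchor-drug dose plus five library-drug doses (not always all listed) in √10 steps, and nuclei were counted after 5 days.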

[2] = tested on: COR-L23
Summary of the method: as §1

[3] = tested on: NCI-H441
Summary of the method: as §1

[4] = tested on: NCI-H1395
Summary of the method: as §1

[5] = tested on: NCI-H1944
Summary of the method: as §1

[6] = tested on: NCI-H661
Summary of the method: as §1

[7] = tested on: NCI-H2085
Summary of the method: as §1

[8] = tested on: PC-14
Summary of the method: as §1

[9] = tested on: NCI-H2087
Summary of the method: as §1

[10] = tested on: NCI-H1793
Summary of the method: as §1

[11] = tested on: NCI-H596
Summary of the method: as §1

Structure (SMILES): Cc1csc(=NC2CCCCC2)n1/N=C/c1ccc(O)c(O)c1O [MIM1] + Cc1nc(NC(=O)N2CCC[C@H]2C(N)=O)sc1-c1ccnc(C(C)(C)C(F)(F)F)c1 [Alpelisib] (partner 2 µM)
- relative viability ([1]; first compound 0.2 µM): 0.785
- relative viability ([1]; first compound 0.6325 µM): 0.958
- relative viability ([1]; first compound 2 µM): 0.608
- relative viability ([1]; first compound 6.325 µM): 1.03
- relative viability ([1]; first compound 20 µM): 0.24
- relative viability ([2]; first compound 0.2 µM): 0.725
- relative viability ([2]; first compound 0.6325 µM): 0.809
- relative viability ([2]; first compound 2 µM): 0.537
- relative viability ([2]; first compound 6.325 µM): 0.558
- relative viability ([2]; first compound 20 µM): 0.457
- relative viability ([3]; first compound 0.2 µM): 0.75
- relative viability ([3]; first compound 0.6325 µM): 0.63
- relative viability ([3]; first compound 2 µM): 0.655
- relative viability ([3]; first compound 6.325 µM): 0.594
- relative viability ([3]; first compound 20 µM): 0.187
- relative viability ([4]; first compound 0.2 µM): 0.947
- relative viability ([4]; first compound 0.6325 µM): 1.06
- relative viability ([4]; first compound 2 µM): 0.911
- relative viability ([4]; first compound 6.325 µM): 0.537
- relative viability ([4]; first compound 20 µM): 0.407
- relative viability ([5]; first compound 0.2 µM): 0.831
- relative viability ([5]; first compound 0.6325 µM): 0.849
- relative viability ([5]; first compound 2 µM): 0.671
- relative viability ([5]; first compound 6.325 µM): 0.733
- relative viability ([5]; first compound 20 µM): 0.882
- relative viability ([6]; first compound 0.2 µM): 0.728
- relative viability ([6]; first compound 0.6325 µM): 0.847
- relative viability ([6]; first compound 2 µM): 0.655
- relative viability ([6]; first compound 6.325 µM): 0.472
- relative viability ([6]; first compound 20 µM): 0.305
- relative viability ([7]; first compound 0.2 µM): 0.946
- relative viability ([7]; first compound 0.6325 µM): 1.02
- relative viability ([7]; first compound 2 µM): 0.984
- relative viability ([7]; first compound 6.325 µM): 0.84
- relative viability ([7]; first compound 20 µM): 0.882
- relative viability ([8]; first compound 0.2 µM): 0.886
- relative viability ([8]; first compound 0.6325 µM): 0.92
- relative viability ([8]; first compound 2 µM): 0.847
- relative viability ([8]; first compound 6.325 µM): 0.878
- relative viability ([8]; first compound 20 µM): 0.383
- relative viability ([9]; first compound 0.2 µM): 1.17
- relative viability ([9]; first compound 0.6325 µM): 1.2
- relative viability ([9]; first compound 2 µM): 1.06
- relative viability ([9]; first compound 6.325 µM): 0.886
- relative viability ([9]; first compound 20 µM): 0.706
- relative viability ([10]; first compound 0.2 µM): 0.509
- relative viability ([10]; first compound 0.6325 µM): 0.584
- relative viability ([10]; first compound 2 µM): 0.717
- relative viability ([10]; first compound 6.325 µM): 0.579
- relative viability ([10]; first compound 20 µM): 0.804
- relative viability ([11]; first compound 0.2 µM): 0.491
- relative viability ([11]; first compound 0.6325 µM): 0.501
